Measurements taken from ChEMBL document CHEMBL1137829, “In vitro anti-parasitic activity of Cyclosporin A analogs on Trypanosoma cruzi” (Bioorg Med Chem Lett, 2004).

Legend:
[1] = Inhibition of Peptidyl-prolyl cis-trans isomerase Trypanosoma cruzi cyclophilin (CL Brener strain, p19)
Trypanosoma cruzi [2] = assay: Effective concentration required for the lysis of Trypanosoma cruzi trypomastigotes in blood stream after 24 hours of treatment; assay type: functional, organism-based
Trypanosoma cruzi [3] = assay: Compound was tested for the inhibition of Trypanosoma cruzi epimastigote growth after 72 hours of treatment; assay type: functional, organism-based

SMILES	IC50 [1] [µM]	EC50 (Trypanosoma cruzi [2]) [µM]	IC50 (Trypanosoma cruzi [3]; read-out: IC50) [µM]	IC50 (Trypanosoma cruzi [3]) [µM]
C/C=C/CC(C)[C@@H](O)[C@H]1C(=O)N[C@@H](CC)C(=O)N(C)CC(=O)N(C)[C@@H](CC(C)C)C(=O)N[C@@H](C(C)C)C(=O)N(C)[C@@H](CC(C)C)C(=O)N[C@@H](C)C(=O)N[C@H]([C@H](C)O)C(=O)N(C)[C@@H](CC(C)C)C(=O)N(C)[C@@H](CC(C)C)C(=O)N(C)[C@@H](C(C)C)C(=O)N1C (stereo not given in full)	0.0169	13.4	6.93	
CCC/C=C(/C)[C@@H](O)[C@H]1C(=O)N[C@@H]([C@@H](C)OCCCO)C(=O)N(C)CC(=O)N(C)[C@@H](CC(C)C)C(=O)N[C@@H](C(C)C)C(=O)N(C)[C@@H](CC(C)C)C(=O)N[C@@H](C)C(=O)N[C@H](C)C(=O)N(C)[C@@H](CC(C)C)C(=O)N(C)[C@@H](CC(C)C)C(=O)N(C)[C@@H](C(C)C)C(=O)N1C	0.0221	36.8	18.4	
CC[C@@H]1NC(=O)[C@H]([C@H](O)C(C)C/C=C/c2ccccc2)N(C)C(=O)[C@H](C(C)C)N(C)C(=O)[C@H](CC(C)C)N(C)C(=O)[C@H](CC(C)C)N(C)C(=O)[C@@H](C)NC(=O)[C@H](C)NC(=O)[C@H](CC(C)C)N(C)C(=O)[C@H](C(C)C)NC(=O)[C@H](CC(C)C)N(C)C(=O)CN(C)C1=O (stereo not given in full)	0.0125	0.97	0.82	
CC[C@@H]1NC(=O)[C@H]([C@H](O)C(C)CCCc2ccccc2)N(C)C(=O)[C@H](C(C)C)N(C)C(=O)[C@H](CC(C)C)N(C)C(=O)[C@H](CC(C)C)N(C)C(=O)[C@@H](C)NC(=O)[C@H](C)NC(=O)[C@H](CC(C)C)N(C)C(=O)[C@H](C(C)C)NC(=O)[C@H](CC(C)C)N(C)C(=O)CN(C)C1=O (stereo not given in full)	0.0133	2.66	3.41	
C/C=C/C[C@@H](C)[C@@H](O)[C@H]1C(=O)N[C@@H](CC)C(=O)N(C)CC(=O)N(C)[C@@H](CC(C)C)C(=O)N[C@@H](C(C)C)C(=O)N(C)[C@@H](CC(C)C)C(=O)N[C@@H](C)C(=O)N[C@H](C)C(=O)N(C)[C@@H](CC(C)C)C(=O)N(C)[C@@H](CC(C)C)C(=O)N(C)[C@@H](C(C)C)C(=O)N1C [CYCLOSPORINE]		7.19		5.39

Now from value to compound:

IC50 [1] [µM]	EC50 (Trypanosoma cruzi [2]) [µM]	IC50 (Trypanosoma cruzi [3]; read-out: IC50) [µM]	IC50 (Trypanosoma cruzi [3]) [µM]	SMILES
0.0232	7.98	10.6		CC[C@@H]1NC(=O)[C@H]([C@H](O)/C(C)=C\CCCN=[N+]=[N-])N(C)C(=O)[C@H](C(C)C)N(C)C(=O)[C@H](CC(C)C)N(C)C(=O)[C@H](CC(C)C)N(C)C(=O)[C@@H](C)NC(=O)[C@H](C)NC(=O)[C@H](CC(C)C)N(C)C(=O)[C@H](C(C)C)NC(=O)[C@H](CC(C)C)N(C)C(=O)CN(C)C1=O
0.0193	153	11.4		CCC/C=C(/C)[C@@H](O)[C@H]1C(=O)N[C@@H](CC)C(=O)N(C)CC(=O)N(C)[C@@H](CC(C)CO)C(=O)N[C@@H](C(C)C)C(=O)N(C)[C@@H](CC(C)C)C(=O)N[C@@H](C)C(=O)N[C@H](C)C(=O)N(C)[C@@H](CC(C)C)C(=O)N(C)[C@@H](CC(C)C)C(=O)N(C)[C@@H](C(C)C)C(=O)N1C (stereo not given in full)
0.0255	76.1	33.8		CC[C@@H]1NC(=O)[C@H]([C@H](O)/C(C)=C\CCCOC)N(C)C(=O)[C@H](C(C)C)N(C)C(=O)[C@H](CC(C)C)N(C)C(=O)[C@H](CC(C)C)N(C)C(=O)[C@@H](C)NC(=O)[C@H](C)NC(=O)[C@H](CC(C)C)N(C)C(=O)[C@H](C(C)C)NC(=O)[C@H](CC(C)C)N(C)C(=O)CN(C)C1=O
	58.6	7.64		CC[C@@H]1NC(=O)[C@H]([C@H](O)/C(C)=C\CCC(=O)OC(C)C)N(C)C(=O)[C@H](C(C)C)N(C)C(=O)[C@H](CC(C)C)N(C)C(=O)[C@H](CC(C)C)N(C)C(=O)[C@@H](C)NC(=O)[C@H](C)NC(=O)[C@H](CC(C)C)N(C)C(=O)[C@H](C(C)C)NC(=O)[C@H](CC(C)C)N(C)C(=O)CN(C)C1=O
